Reference: US6495699B2, “Metalloproteinase inhibitors, pharmaceutical compositions containing them, and their use” (Agouron Pharmaceuticals Inc., priority 1996, dated 2002)

Tests used:
[1] = biological target: T1, fibroblast collagenase-1 catalytic domain (HFC) (Homo sapiens, UniProt P03956); assay: Fluorometric MCA-peptide hydrolysis assay, fibroblast collagenase-1 (HFC); format: biochemical; details: apparent Ki; 10 μM MCA peptide substrate, 37° C., pH 7.5; read-out: HFC (Ki,app)
T1 construct: The catalytic domain of human collagenase-1 was expressed as a fusion protein with ubiquitin in E. coli; ubiquitin (cleaved yes); made in house; host or cells: E. coli
T1 sequence (P03956 100-269 limits assumed): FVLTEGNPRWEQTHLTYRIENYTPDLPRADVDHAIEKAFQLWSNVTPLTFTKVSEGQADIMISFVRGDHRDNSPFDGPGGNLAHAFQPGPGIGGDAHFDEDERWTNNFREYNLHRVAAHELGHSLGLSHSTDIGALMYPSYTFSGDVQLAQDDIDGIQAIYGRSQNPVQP
How it was run: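 Human collagenase-1 catalytic domain, expressed in E. coli as ubiquitin fusion, was assayed with 10 μM MCA-Pro-Leu-Gly-Leu-DPA-Ala-Arg-NH2 at 37 °C in Tricine pH 7.5, 2% DMSO, over 60 min (ex 328/em 393 nm). Ki,app came from steady-state rates fitted to competitive or Morrison tight-binding equations.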

[2] = biological target: T2, human progelatinase A (GelA), catalytic and fibronectin-like portion (Homo sapiens, UniProt P08253); assay: Fluorometric MCA-peptide hydrolysis assay, gelatinase A (GelA); format: biochemical; details: apparent Ki; 10 μM MCA peptide substrate, 37° C., pH 7.5
T2 construct: The catalytic and fibronectin-like portion of human progelatinase A (GelA) was expressed as a fusion protein with ubiquitin; ubiquitin; made in house; host or cells: E. coli
How it was run: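 E. coli-expressed ubiquitin fusion of human proGelA catalytic plus fibronectin-like domains, autoactivated; 10 μM MCA-Pro-Leu-Gly-Leu-DPA-Ala-Arg-NH2, pH 7.5 Tricine/NaCl/CaCl2/Zn buffer, 2% DMSO, 37° C, 60 min. Fluorescence 328/393 nm; steady-state rates fitted to competitive inhibition or Morrison tight-binding equation giving Ki,app (≈Ki since [S]<<Km).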

[3] = LogP; format: physicochemical

T2 sequence (P08253 110-465 limits assumed): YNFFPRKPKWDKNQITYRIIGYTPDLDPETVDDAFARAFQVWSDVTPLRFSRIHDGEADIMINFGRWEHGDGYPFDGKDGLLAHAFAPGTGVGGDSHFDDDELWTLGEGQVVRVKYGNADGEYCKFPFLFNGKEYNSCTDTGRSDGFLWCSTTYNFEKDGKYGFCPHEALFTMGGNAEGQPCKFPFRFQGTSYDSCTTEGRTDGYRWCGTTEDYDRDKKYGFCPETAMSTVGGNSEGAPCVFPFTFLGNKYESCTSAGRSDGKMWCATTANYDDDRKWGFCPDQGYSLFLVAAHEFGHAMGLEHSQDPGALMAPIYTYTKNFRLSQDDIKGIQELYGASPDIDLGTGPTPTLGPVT

With `CNC(=O)[C@@H](NC(=O)[C@@H](CC(=O)O)n1ccc(-c2ccc(-c3ccc(C#N)cc3)cc2)c1)C(C)(C)C` [Example 5(c), 3(R)-[3-(4′-Cyanobiphenyl-4-yl)-1H-pyrrol-1-yl]-N-[2,2-dimethyl-1(S)-(methylcarbamoyl)propyl]succinamic Acid] the Ki [1] was 1500 nM, the GelA (Ki,app) [2] was 0.041 nM and the logP [3] was 3.41.
